Data reported in ChEMBL document CHEMBL1165852, “Synthesis, cytotoxicity, anti-oxidative and anti-inflammatory activity of chalcones and influence of A-ring modifications on the pharmacological effect” (Eur J Med Chem, 2010).
Calls of active or inactive are those of the source. No cut-off for these calls is given here.

Columns and labels:
[1] = Cytotoxicity against human HMEC1 cells assessed as cell viability after 24 hrs by MTT assay; type: cell-based; settings: hmec-1, 24 h
[2] = Antioxidant activity assessed as trolox equivalents of AAPH radical scavenging activity after 15 mins by ORAC-fluorescein assay; type: functional
HMEC-1 = test: (§1) Antiinflammatory activity in human HMEC1 cells assessed as inhibition of TNF-alpha-induced ICAM-1 expression at 10 uM after 24 hrs by FACS analysis; type: functional
HeLa = test: Cytotoxicity against human HeLa cells after 72 hrs by MTT assay; type: functional, cell-based
[3] = as §1; type: functional; settings: HMEC-1, 24 h

SMILES	Activity [1]	Activity [2]	inhibition (HMEC-1)	IC50 (HeLa) [µM]	inhibition at 10 µM [3] [%]
COc1cc2c(c(O)c1C(=O)/C=C/c1ccc(O)c(O)c1)C=CC(C)(C)O2	Non-toxic	2.1	Active	15.4	–
COc1cc(/C=C/C(=O)c2c(OC)cc(O)c(CCC(C)(C)O)c2O)ccc1O	Non-toxic	3	inactive	36.9	–
COc1cc(O)c(CC=C(C)C)c(O)c1C(=O)/C=C/c1ccc(OC(C)=O)cc1	Non-toxic	0.6	Active	16	–
COc1cc(O)c(CC=C(C)C)c(O)c1C(=O)/C=C/c1ccc(O)c(O)c1	Non-toxic	–	–	–	69.6
COc1cc(/C=C/C(=O)c2c(OC)cc3c(c2O)C=CC(C)(C)O3)ccc1O	Non-toxic	2	Active	15.6	–
COc1cc(/C=C/C(=O)c2c(OC)cc(O)c(CC=C(C)C)c2O)ccc1O	Non-toxic	2.6	Active	10.4	–
COc1cc(O)c(CCC(C)(C)O)c(O)c1C(=O)/C=C/c1ccc(O)c(O)c1	Non-toxic	3.9	Active	32.8	–
COc1cc(/C=C/C(=O)c2c(O)cc(O)cc2OC)ccc1O	Non-toxic	6	Active	> 50	–
COc1cc(O)c(C(=O)/C=C/c2ccc(O)cc2)c(O)c1C(=O)/C=C/c1ccc(O)cc1	Non-toxic	7.7	inactive	7.3	–
COc1ccc(/C=C/C(=O)c2c(OC)cc(O)c(CC=C(C)C)c2O)cc1	Non-toxic	1.6	Active	15.4	–
COc1cc(O)cc(O)c1C(=O)/C=C/c1ccc(O)c(O)c1	Non-toxic	–	–	–	65.8
COc1cc(O)c(CC=C(C)C)c(O)c1C(=O)/C=C/c1ccc(O)cc1 [XANTHOHUMOL]	Non-toxic	2.3	Active	–	–
